Legend:
tyrosinase = assay: Tyrosinase mediated GSH depletion assay; assay type: biochemical, Mushroom; details: 100 μM phenolic agent, 200 μM GSH, tyrosinase/O2, 37 °C, 2 h
SK-MEL-28 melanoma cells = assay: MTT cell viability assay, IC50; assay type: cell-based, human; details: MTT assay, 48 h incubation
[1] = no reference given; cited from earlier work
[2] = Partition coefficient, distribution coefficient and water solubility
isolated rat hepatocytes = details: trypan blue exclusion, 2 h incubation; cited from earlier work

| SMILES | Tyrosinase GSH depletion (2 h) (tyrosinase) [%] | LD50 (day 2) SK-MEL-28 (SK-MEL-28 melanoma cells) [mM] | pKa value of the carboxylic moiety [1] | water solubility relative to CAPE ([2]; from LogW) [fold] | ionized at physiological pH ([2]; pH 7.4) | LD50 (2 h) rat hepatocytes (isolated rat hepatocytes) [mM] |
| --- | --- | --- | --- | --- | --- | --- |
| O=C(O)C=Cc1ccc(O)cc1 [4-HCA, 4-hydroxycinnamic acid] | 16±3 | 4.4 | – | – | – | – |
| O=C(/C=C/c1ccc(O)c(O)c1)O[C@@H]1C[C@](O)(C(=O)O)C[C@@H](O)[C@H]1O [CGA, chlorogenic acid] | 200±5 | >5 | – | – | – | – |
| O=C(O)/C=C/c1ccc(O)c(O)c1 [CA, caffeic acid] | 200±6 | 2.3 | 4.62 | 45 | more than 99% | – |
| O=C(O)CCc1ccccc1 [DHCinA, Dihydrocinnamic acid] | 32±3 | 5 | – | – | – | – |
| O=C(O)CCc1ccc(O)c(O)c1 [DHCA, dihydrocaffeic acid] | 200±4 | 2.2 | – | – | – | 6 |
